Measurements from PMC5452050 (ACS Omega, 2017).
≈ marks a conversion by molar mass, not a printed value.

Columns and labels:
[1] = test system: MV4-11 cells; assay: MV4-11 cell proliferation; format: cell-based; conditions: for EC50: Homo sapiens, MV4-11, 72 h, read-out: MV4-11 EC50
[2] = target: T1, recombinant human FLT3 (571–993) (Homo sapiens, UniProt P36888); assay: biochemical; format: biochemical; conditions: for IC50: FLT3 IC50, FLT3^WT enzyme, 500 μM ATP
T1 sequence (P36888 571-993): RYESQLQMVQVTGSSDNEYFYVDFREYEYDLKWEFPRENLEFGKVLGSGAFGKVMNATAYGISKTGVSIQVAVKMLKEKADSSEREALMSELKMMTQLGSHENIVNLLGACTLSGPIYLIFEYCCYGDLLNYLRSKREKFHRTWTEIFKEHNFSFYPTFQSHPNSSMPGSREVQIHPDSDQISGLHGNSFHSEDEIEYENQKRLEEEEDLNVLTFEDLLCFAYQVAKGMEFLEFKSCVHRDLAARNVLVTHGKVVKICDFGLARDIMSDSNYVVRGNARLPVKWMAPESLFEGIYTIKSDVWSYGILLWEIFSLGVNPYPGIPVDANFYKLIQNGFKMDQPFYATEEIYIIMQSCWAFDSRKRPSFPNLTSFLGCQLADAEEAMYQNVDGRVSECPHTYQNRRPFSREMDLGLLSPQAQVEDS

[3] = test system: BJ cells; assay: BJ fibroblast proliferation; format: cell-based; conditions: Homo sapiens, 72 h, read-out: BJ EC50, 72 h
[4] = Liver microsomal stability; conditions: both, human, liver microsomes, pH 7.4
[5] = test system: FLT3-ITD phosphorylation; assay: Western blot of FLT3 signaling in MOLM13^FLT3-ITD cells; format: cell-based; conditions: 1 h, read-out: FLT3 IC50 estimated from loss of FLT3-ITD phosphorylation
[6] = Plasma stability; format: in vitro ADME; conditions: mouse
[7] = Plasma stability; format: in vitro ADME; conditions: rat
[8] = test system: MOLM13^FLT3-ITD cells; assay: MOLM13 cell viability; format: cell-based; conditions: Homo sapiens, MOLM-13, 72 h, read-out: MOLM13^FLT3-ITD IC50
[9] = Liver microsomal stability; conditions: rat, liver microsomes, pH 7.4
[10] = Liver microsomal stability; conditions: dog, liver microsomes, pH 7.4
[11] = test system: MOLM13^FLT3-ITD/D835Y cells; assay: MOLM13 cell viability; format: cell-based; conditions: Homo sapiens, MOLM-13, 72 h, read-out: MOLM13^FLT3-ITD/D835Y IC50
[12] = Plasma stability; format: in vitro ADME; conditions: human
[13] = Liver microsomal stability; conditions: female, CD-1, mouse, liver microsomes, pH 7.4
[14] = Solubility; format: physicochemical; conditions: buffer, pH 7.4, aqueous buffer, kinetic from dmso stock

CC(C)(C)Nc1ccnc(Nc2cccc(-c3cccnc3)c2)n1 [Compound 5f, N^4-(tert-Butyl)-N^2-(3-(pyridin-3-yl)phenyl)pyrimidine-2,4-diamine]
fold improvement in MV4-11 growth inhibition relative to 1 [1]: approximately 10 fold

c1cncc(-c2cccc(Oc3nccc(OC4CCCCC4)n3)c2)c1 [Compound 20, 4-(Cyclohexyloxy)-2-(3-(pyridin-3-yl)phenoxy)pyrimidine]
IC50 [2]: 49 nM | EC50 [1]: > 13000 nM

c1cncc(-c2cccc(Nc3ccnc(NC4CCCCC4)c3)c2)c1 [Compound 14, N^2-Cyclohexyl-N^4-(3-(pyridin-3-yl)phenyl)pyridine-2,4-diamine]
EC50 [3]: 8740 nM | IC50 [2]: 141 nM | EC50 [1]: > 8000 nM

CN(c1cccc(-c2cccnc2)c1)c1nccc(N(C)C2CCCCC2)n1 [Compound 17, N^4-Cyclohexyl-N^2,N^4-dimethyl-N^2-(3-(pyridin-3-yl)phenyl)pyrimidine-2,4-diamine]
IC50 [2]: > 15000 nM | EC50 [1]: 39 nM

CN(c1cccc(-c2cccnc2)c1)c1nccc(NC2CCCCC2)n1 [Compound 21, N^4-Cyclohexyl-N^2-methyl-N^2-(3-(pyridin-3-yl)phenyl)pyrimidine-2,4-diamine]
IC50 [2]: > 11000 nM | EC50 [1]: > 4000 nM

c1cncc(-c2cccc(Nc3cc(NC4CCCCC4)ccn3)c2)c1 [Compound 13, N^4-cyclohexyl-N^2-(3-(pyridin-3-yl)phenyl)pyridine-2,4-diamine]
EC50 [3]: 10600 nM | IC50 [2]: 1500 nM | EC50 [1]: > 16000 nM

CC(C)Nc1ccnc(Nc2cccc(-c3cnccn3)c2)n1 [Compound 6k, N^4-Isopropyl-N^2-(3-(pyrazin-2-yl)phenyl)pyrimidine-2,4-diamine]
CLint scaled at 4 µM [4]: 14.2 mL/min/kg | half-life at 4 µM [4]: 87.6 ± 6 min | IC50 [5]: 50 to 100 nM | plasma stability [6]: >50 h | plasma stability [7]: >50 h | IC50 [8]: 45 nM | CLint scaled at 4 µM [9]: 122 mL/min/kg | half-life at 4 µM [9]: 22.8 ± 0.6 min | CLint scaled at 4 µM [10]: 37 mL/min/kg | half-life at 4 µM [10]: 54 ± 1.2 min | IC50 [11]: 77 nM | plasma stability [12]: >50 h | CLint scaled at 4 µM [13]: 485 mL/min/kg | half-life at 4 µM [13]: 7.08 ± 0.18 min | solubility at 18 h [14]: 56.9 ± 1.9 µM (≈ 17.4 µg/mL)

c1cncc(-c2cccc(Nc3nccc(OC4CCCCC4)n3)c2)c1 [Compound 19, 4-(Cyclohexyloxy)-N-(3-(pyridin-3-yl)phenyl)pyrimidin-2-amine]
IC50 [2]: 187 nM | EC50 [1]: > 6000 nM

c1cncc(-c2cccc(Oc3nccc(NC4CCCCC4)n3)c2)c1 [Compound 22, N-Cyclohexyl-2-(3-(pyridin-3-yl)phenoxy)pyrimidin-4-amine]
fold reduction of FLT3 enzymatic activity compared to 1 [2]: ~40 fold | IC50 [2]: 1260 nM | EC50 [1]: > 14000 nM

CC(C)(C)c1cc(NC(=O)Nc2ccc(-c3cn4c(n3)sc3cc(OCCN5CCOCC5)ccc34)cc2)no1 [quizartinib, reference compound]
EC50 [3]: > 22000 nM | EC50 [1]: 0.7 nM

c1cncc(-c2cccc(Nc3nccc(NC4CCNCC4)n3)c2)c1 [Compound 5q, N^4-(Piperidin-4-yl)-N^2-(3-(pyridin-3-yl)phenyl)pyrimidine-2,4-diamine]
fold more potent than 1 against FLT3 [2]: approximately 4 fold

CC[C@@H](C)Nc1ccnc(Nc2cccc(-c3cccnc3)c2)n1 [Compound 5k, (R)-N^4-(sec-Butyl)-N^2-(3-(pyridin-3-yl)phenyl)pyrimidine-2,4-diamine]
fold improvement in MV4-11 growth inhibition relative to 1 [1]: approximately 10 fold

CN(c1ccnc(Nc2cccc(-c3cccnc3)c2)n1)C1CCCCC1 [Compound 16, N^4-Cyclohexyl-N^4-methyl-N^2-(3-(pyridin-3-yl)phenyl)pyrimidine-2,4-diamine]
IC50 [2]: 82 nM | EC50 [1]: > 8000 nM

CC[C@H](C)Nc1ccnc(Nc2cccc(-c3cccnc3)c2)n1 [Compound 5j, (S)-N^4-(sec-Butyl)-N^2-(3-(pyridin-3-yl)phenyl)pyrimidine-2,4-diamine]
fold improvement in MV4-11 growth inhibition relative to 1 [1]: approximately 10 fold

c1cncc(-c2cccc(Nc3cccc(NC4CCCCC4)n3)c2)c1 [Compound 9, N^2-Cyclohexyl-N^6-(3-(pyridin-3-yl)phenyl)pyridine-2,6-diamine]
EC50 [3]: > 10000 nM | IC50 [2]: 80 nM | EC50 [1]: > 10000 nM
